# Data from BindingDB's records for doi:10.1111/j.1471-4159.1990.tb04946.x (Schering-Plough Research Institute, 1990).
# Biological target: Hrh3 protein (Rattus norvegicus, UniProt Q5PPG3)
# Sequence (Q5PPG3 whole entry): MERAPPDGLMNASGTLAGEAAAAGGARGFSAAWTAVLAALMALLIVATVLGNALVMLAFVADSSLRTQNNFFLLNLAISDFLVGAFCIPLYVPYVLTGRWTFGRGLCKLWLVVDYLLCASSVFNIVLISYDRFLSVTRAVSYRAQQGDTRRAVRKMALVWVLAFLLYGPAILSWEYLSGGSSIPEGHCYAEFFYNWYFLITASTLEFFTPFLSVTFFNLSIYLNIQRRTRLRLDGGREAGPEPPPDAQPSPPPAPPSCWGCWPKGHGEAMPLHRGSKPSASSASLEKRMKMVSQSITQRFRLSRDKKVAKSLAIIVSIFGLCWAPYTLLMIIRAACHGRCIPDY
row,SMILES,Ki [nM]
1,C[C@@H](N)Cc1c[nH]cn1,1.2
2,CN/C([CH-][N+](=O)[O-])=[NH+]\CCSCc1ccc(CN(C)C)o1,> 10000
3,NCCc1c[nH]cn1 [[3H]histamine],11
4,COc1ccc(CN(CCN(C)C)c2ccccn2)cc1,> 10000
5,Cc1[nH]cnc1CSCCNC(=N)NCCCc1c[nH]cn1 [2-[3-(1H-imidazol-5-yl)propyl]-1-(2-{[(5-methyl-1H-imidazol-4-yl)methyl]sulfanyl}ethyl)guanidine],46
6,CN/C(=N/CCSCc1nc[nH]c1C)NC#N,8000
7,CNCCc1c[nH]cn1 [N(alpha)-Methylhistamine],0.45
8,c1c[nH]cn1,> 10000
9,S=C(NC1CCCCC1)N1CCC(c2cnc[nH]2)CC1,16

# Results, then the molecule that gave them:
row,Ki [nM],SMILES
1,> 10000,CN(C)CCC(c1ccc(Cl)cc1)c1ccccn1 (centres undefined) [clorfeniramina]
2,> 10000,C/N=C(\S)NCCSCc1[nH]cnc1C [CAS_34839-70-8]
3,> 10000,CNC(=NCCSCc1csc(N=C(N)N)n1)NC#N [[3H]tiotidine]
4,> 10000,NC(Cc1c[nH]cn1)C(=O)O (centres undefined) [NSC_773]
5,440,CN(C)CCCSC(=N)N [[3-(carbamimidoylsulfanyl)propyl]dimethylamine]
